Experimental data from patent publication US8563578B2, “Antitumor properties of NO modified protease inhibitors” (Onconox APS, priority 2008, dated 2013).

Assays:
[1] = tested on: B16 cells; assay: Autophagy detection by acridin orange staining, B16; type: cell-based, mouse; conditions: 18.8 μM, 24 h
Procedure: Vital dye acridin orange (AO) was used for detection of autophagy. The intensity of red fluorescence correlates with acidity and volume of present autophagic organelles (Kanzawa et al. 2004). Assay was performed as follows: the cells were cultured in 6-well plate (2×10^5/well) 24 h in the presence of the drug, detached with trypsin and stained with 1 μg/ml AO in RPMI without phenol red for 15 min at RT. After the end of incubation period cells were washed and resuspended in PBS. Green and red fluorescence emission was measured with a FACSCalibur and analyzed using CellQuest software.
(§1) FIG. 4. […] Results are calculated as indicated in materials and methods and presented as mean±SD from representative of three independent experiment (*p <0.05). […] After 24 h of cultivation without or with drugs, cells were stained with AO orange (B) or PI (C) and analyzed by flow cytometry. The data are presented as mean±SD from three independent experiments. *p<0.05, refers to untreated cultures. […] Cells were incubated with 18.8 μM of Sag or Saq-NO2 for 24 h. After that, the drugs were either removed or not from the cells and incubated for additional 24 h. Cell viability was determined by CV test after 24 and 48 h of incubation (right panels). The data are presented as mean±SD from three independent experiments. *p<0.05, refers to untreated cultures.

[2] = tested on: tyrosinase of B16 cells; assay: Tyrosinase activity assay, B16; type: cell-based, mouse; conditions: 18.8 μM, 24 h
Procedure: Tyrosinase activity was determined by measuring the rate of oxidation of L-DOPA^34. Briefly, sub-confluent cultures in 6-well plate were lysed in 100 μl phosphate buffer pH 6.8-1% Triton X-100 and than centrifuged at 10000 rpm for 5 min. 40 μl of each extract was mixed with 100 μl of L-DOPA substrate solution (2 mg/ml). Enzymatic reaction was carried out at 37° C. and the absorbance at 570 nm was read every 10 min for at least 1 h. The final activity was corrected by the total amount of protein estimated by Bradford assay. For melanin determination cells were incubated in 6 well plate for 24 h, trypsinized, counted and than lysed in 100 μl of 1M NaOH. 400 μl of distilled water was added and samples were incubated at 60° C. for 1 h. Thereafter, absorbance of dissolved dye was measured at 492 nm.
FIG. 5. […] Cell morphology was assessed by light microscopy (A). Markers of cell differentiation of C6 and B16 cells, galactocerebroside, GFAP and MBP were determined by cELISA and melanin and tyrosinase activity were determined as described in material and methods (B). Cyclin D3 and p53 expression were evaluated by cELISA (C, upper panels), immunocytochemistry (C, middle panel) and Western blot (C, lower panel). The results were presented as mean±SD from three independent experiments. *p<0.05, refers to untreated cultures.

[3] = tested on: C6 cells; assay: Cell cycle / apoptosis by propidium iodide flow cytometry, C6; type: cell-based, rat; conditions: 18.8 μM, 24 h
Procedure: Apoptotic cell death was assessed by flow cytometry analysis of DNA fragmentation in cells stained with DNA-binding dye propidium iodide (PI). Following a 24 h incubation in 6-well plate, cells (2×10^5/well) were detached with trypsin, washed and fixed in 70% ethanol at 4° C. for 30 min. After washing in PBS, cells were resuspended in PBS containing 1 mg/ml RNase and propidium iodide (40 μg/ml) and kept at 37° C. in the dark for 30 min. Red fluorescence was analyzed with FACSCalibur flow cytometer (BD, Heidelberg, Germany) and distribution of cells among cell cycle phases was determined with Cell Quest Pro software (BD). Hypodiploid cells in sub-G0/G1 compartment were considered apoptotic.
as §1

[4] = tested on: mouse fibroblasts; assay: Cell viability by CV test, primary fibroblasts; type: cell-based; conditions: 24 h, Sag at its IC50 dose
From the text: Rat glioma C6 and human glioblastoma U251 cell lines were a kind gift from Dr. Pedro Tranque (Universidad de Castilla-La Mancha, Albacete, Spain), murine melanoma B 16, and human adenocarcinoma HeLa, were a kind gift from Dr. Sinisa Radulovic (Institute for Oncology and Radiology of Serbia, Belgrade, Serbia) while mouse fibrosarcoma L929 was obtained from the European Collection of Animal Cell Cultures (Salisbury, UK). Human breast HCC1419 and prostate PC-3 cells were purchased from LGC Promochem srl (Venezia, Italy). Primary mouse fibroblasts and rat astrocytes were prepared as described (Mijatovic et al. 2004). […]
Reduction of 3-4,5-dimethylthiazol-2-yl)-2,5-diphenyltetrazolium bromide (MTT) to formazan depends on mitochondrial activity of cultured cells, absorption of crystal violet dye correlates with the number of adherent, live cells, while the release of cytosolic lactate dehydrogenase (LDH) indicates the disruption of membrane integrity caracteristic for necrotic cells. […] Mitohondrial-dependent production of formazan and intensity of absorbed crystal violet by adherent cells were assessed by an automated microplate reader at 570 nm, while the pyruvate-mediated conversion of 2,4-dinitrophenylhydrazine into visible hydrazone precipitate in LDH assay was measured at 492 nm. […]
FIG. 2. […] Cell viability was then evaluated by CV test. […]

[5] = tested on: Tumor cells; assay: Viability recovery after drug withdrawal (CV test); type: cell-based; conditions: 18.8 μM for 24 h, drug removed, additional 24 h
Procedure: Reduction of 3-4,5-dimethylthiazol-2-yl)-2,5-diphenyltetrazolium bromide (MTT) to formazan depends on mitochondrial activity of cultured cells, absorption of crystal violet dye correlates with the number of adherent, live cells, while the release of cytosolic lactate dehydrogenase (LDH) indicates the disruption of membrane integrity caracteristic for necrotic cells. The cells were seeded in flat-bottom 96-well plates in a final volume of 200 μl of culture medium containing different agents, and the assays were performed after 24 h incubation exactly as previously described (Mijatovic et al. 2004, Decker et al., 1998). Mitohondrial-dependent production of formazan and intensity of absorbed crystal violet by adherent cells were assessed by an automated microplate reader at 570 nm, while the pyruvate-mediated conversion of 2,4-dinitrophenylhydrazine into visible hydrazone precipitate in LDH assay was measured at 492 nm. The % of cytotoxicity as indicated by LDH release was calculated as: (E−C)/(T−C)×100, where E is the experimental absorbance of cell cultures, C is the control absorbance of cell-free culture medium, and T is the absorbance corresponding to the maximal (100%) LDH release of Triton-lysed cells.
FIG. 4. […] Results are calculated as indicated in materials and methods and presented as mean±SD from representative of three independent experiment (*p <0.05). […]

| SMILES | amount of acidic vesicles in the cytoplasm (autophagy) [1] | tyrosinase activity [2] | cell cycle distribution [3] | effect on viability of non-transformed primary fibroblasts [4] | recovery of viability after drug withdrawal [5] | percentage of cells in subG compartment (apoptosis) [3] |
| --- | --- | --- | --- | --- | --- | --- |
| CC(C)(C)NC(=O)[C@@H]1C[C@@H]2CCCC[C@@H]2CN1C[C@@H](O)[C@H](Cc1ccccc1)NC(=O)[C@H](CC(N)=O)NC(=O)c1ccc2ccccc2n1 [Saq, Saquinavir, reference compound] | absence of autophagia | increased | did not show considerably different distribution from control | highly toxic | mainly restored the viability | – |
| CC(C)(C)NC(=O)[C@@H]1C[C@@H]2CCCC[C@@H]2CN1C[C@@H](O[N+](=O)[O-])[C@H](Cc1ccccc1)NC(=O)[C@H](CC(N)=O)NC(=O)c1ccc2ccccc2n1 [Saq-NO2, nitric ester of Saquinavir] | absence of autophagia | slight but significant decrease | particularly marked arrest in G0/G1 | did not affect the viability | very mild recovering | slightly increased |
